Source: patent publication US10421740B2, “Pesticidally active heterocyclic derivatives with sulphur containing substituents” (SYNGENTA PARTICIPATIONS AG, priority 2016, dated 2019)

What was measured:
Assay type in all cases: in vivo
[1] = tested on: Euschistus heros (Neotropical Brown Stink Bug); assay: Activity against Euschistus heros (neotropical brown stink bug); conditions: 120 h, application rate 200 ppm, soybean leaves, N2 nymphs, 5 days after infestation, read-out: effect in at least one of the two categories (mortality or growth inhibition)
Method: Example B9: Activity Against Euschistus heros (Neotropical Brown Stink Bug)
Soybean leaves on agar in 24-well microtiter plates were sprayed with aqueous test solutions prepared from 10'000 ppm DMSO stock solutions. After drying the leaves were infested with N2 nymphs. The samples were assessed for mortality and growth inhibition in comparison to untreated samples 5 days after infestation.

[2] = tested on: Spodoptera littoralis (Egyptian Cotton Leaf Worm); assay: Activity against Spodoptera littoralis (Egyptian cotton leaf worm), cotton leaf disc spray; conditions: foliar, 72 h, application rate 200 ppm, cotton leaf discs, L1 larvae, 3 days after infestation
Method: Example B8: Activity Against Spodoptera littoralis (Egyptian Cotton Leaf Worm)
Cotton leaf discs were placed onto agar in 24-well microtiter plates and sprayed with aqueous test solutions prepared from 10'000 ppm DMSO stock solutions. After drying the leaf discs were infested with five L1 larvae. The samples were assessed for mortality, anti-feeding effect, and growth inhibition in comparison to untreated samples 3 days after infestation. Control of Spodoptera littoralis by a test sample is given when at least one of the categories mortality, anti-feedant effect, and growth inhibition is higher than the untreated sample.

[3] = tested on: Plutella xylostella (Diamond Back Moth); assay: Activity against Plutella xylostella (diamond back moth); conditions: 120 h, application rate 200 ppm, artificial diet, L2 larvae, 5 days after infestation, read-out: effect in at least one of the two categories (mortality or growth inhibition)
Method: Example B5: Activity Against Plutella xylostella (Diamond Back Moth)
(§1) 24-well microtiter plates with artificial diet were treated with aqueous test solutions prepared from 10'000 ppm DMSO stock solutions by pipetting. After drying, the plates were infested with L2 larvae (10 to 15 per well). The samples were assessed for mortality and growth inhibition in comparison to untreated samples 5 days after infestation.

[4] = tested on: Diabrotica balteata (Corn Root Worm); assay: Activity against Diabrotica balteata (corn root worm); conditions: 96 h, application rate 200 ppm, maize sprouts, L2 larvae, 4 days after infestation, read-out: effect in at least one of the two categories (mortality or growth inhibition)
Method: Example B2: Activity Against Diabrotica balteata (Corn Root Worm)
as §1, with “Maize sprouts placed onto an agar layer in 24-well” for “24-well”, “plates” for “plates with artificial diet”, “spraying.” for “pipetting.”, “(6” for “(10”, “10” for “15”, “4” for “5”

[5] = tested on: Spodoptera littoralis (Egyptian Cotton Leaf Worm); assay: Activity against Spodoptera littoralis (Egyptian cotton leaf worm), uptake via lettuce roots; conditions: 144 h, test rate 12.5 ppm, lettuce grown on treated agar, eggs, 6 days after infestation, read-out: effect in at least one of the three categories (mortality, anti-feeding, or growth inhibition)
Excerpt: Example B6: Activity Against Spodoptera littoralis (Egyptian Cotton Leaf Worm)
Test compounds were applied by pipette from 10'000 ppm DMSO stock solutions into 24-well plates and mixed with agar. Lettuce seeds were placed onto the agar and the multi well plate was closed by another plate which contained also agar. After 7 days the compound was absorbed by the roots and the lettuce grew into the lid plate. The lettuce leaves were then cut off into the lid plate. Spodoptera eggs were pipetted through a plastic stencil onto a humid gel blotting paper and the lid plate was closed with it. The samples were assessed for mortality, anti-feedant effect and growth inhibition in comparison to untreated samples 6 days after infestation.

[6] = tested on: Bemisia tabaci (Cotton White Fly); assay: Activity against Bemisia tabaci (cotton white fly): feeding/contact activity; conditions: foliar, 144 h, application rate 200 ppm, cotton leaf discs, adult white flies, 6 days after incubation
Method: Example B1: Activity Against Bemisia tabaci (Cotton White Fly): Feeding/Contact Activity
Cotton leaf discs were placed on agar in 24-well microtiter plates and sprayed with aqueous test solutions prepared from 10'000 ppm DMSO stock solutions. After drying the leaf discs were infested with adult white flies. The samples were checked for mortality 6 days after incubation.

[7] = tested on: Myzus persicae (Green Peach Aphid); assay: Activity against Myzus persicae (green peach aphid): feeding/contact activity; conditions: foliar, 144 h, application rate 200 ppm, sunflower leaf discs, aphid population of mixed ages, 6 days after infestation
Method: Example B3: Activity Against Myzus persicae (Green Peach Aphid): Feeding/Contact Activity
Sunflower leaf discs were placed onto agar in a 24-well microtiter plate and sprayed with aqueous test solutions prepared from 10'000 ppm DMSO stock solutions. After drying, the leaf discs were infested with an aphid population of mixed ages. The samples were assessed for mortality 6 days after infestation.

[8] = tested on: Anopheles stephensi (Indian Malaria Mosquito); assay: Activity against Anopheles stephensi (Indian malaria mosquito); conditions: 200 ppm in ethanol, dry deposit; adult females; after 48 h and/or 24 h
Method: Example B10: Activity Against Anopheles stephensi (Indian Malaria Mosquito)
Test solutions, at an application rate of 200 ppm in ethanol, were applied to 12 well tissue culture plates. Once the deposits were dry, five, two to five day old adult female Anopheles stephensi were added to each well, and sustained with a 10% sucrose solution in a cotton wool plug. Assessment of knockdown was made one hour after introduction, and mortality was assessed at 24 and 48 hours after introduction.

[9] = tested on: Myzus persicae (Green Peach Aphid); assay: Activity against Myzus persicae (green peach aphid): systemic activity; conditions: 144 h, test rate 24 ppm, roots of pea seedlings in test solution, 6 days
Method: Example B4: Activity Against Myzus persicae (Green Peach Aphid): Systemic Activity
Roots of pea seedlings infested with an aphid population of mixed ages were placed directly into aqueous test solutions prepared from 10'000 DMSO stock solutions. The samples were assessed for mortality 6 days after placing seedlings into test solutions.

| Compound | effect (mortality or growth inhibition) at 200 ppm [1] | percent control (mortality, anti-feedant effect or growth inhibition) at 200 ppm [2] | percent control (mortality or growth inhibition) at 200 ppm [3] | percent effect (mortality or growth inhibition) at 200 ppm [4] | percent with effect (mortality, anti-feeding or growth inhibition) at 12.5 ppm [5] | mortality at 200 ppm [6] | mortality at 200 ppm [7] | control of Anopheles stephensi [8] | mortality at 24 ppm [9] |
| --- | --- | --- | --- | --- | --- | --- | --- | --- | --- |
| CCS(=O)(=O)c1cc2sc(C(F)(F)F)nc2cc1-c1nnc(-c2cc(C(F)(F)F)ccn2)n1C [Compound A8, 6-ethylsulfonyl-5-[4-methyl-5-[4-(trifluoromethyl)-2-pyridyl]-1,2,4-triazol-3-yl]-2-(trifluoromethyl)-1,3-benzothiazole] | ≥ 80% | ≥ 80% | ≥ 80% | ≥ 80% | ≥ 80% | ≥ 80% | ≥ 80% |  |  |
| CCS(=O)(=O)c1cc2c(cc1-c1nnc(-c3cc(C(F)(F)F)ccn3)n1C)nc(C(F)(F)F)n2C [Compound A2, 6-ethylsulfonyl-1-methyl-5-[4-methyl-5-[4-(trifluoromethyl)-2-pyridyl]-1,2,4-triazol-3-yl]-2-(trifluoromethyl)benzimidazole] |  | ≥ 80% | ≥ 80% | ≥ 80% | ≥ 80% | ≥ 80% | ≥ 80% | at least 80% | ≥ 80% |
